# In US12139480B2, “5-thiazolecarboxamide kinase inhibitor and uses thereof” (iOmx Therapeutics AG, priority 2018, dated 2024):
# Where two headings read alike, the source gives them in different places.
# Columns and labels:
# SIK1 = molecular target: T1, SIK1 (Homo sapiens, UniProt P57059); assay: single-point (1 uM) inhibition assay (ProQinase Kinase Profiler); assay type: biochemical; details: read-out: % residual activity class (FIG. 3)
# T1 construct: purchased ProQinase
# EPHA5 = molecular target: T2, EPHA5 (Homo sapiens, UniProt P54756); assay: as above; assay type: biochemical
# T2 construct: purchased ProQinase
# TEC = molecular target: T3, TEC (Homo sapiens, UniProt P42680); assay: as above; assay type: biochemical; details: 1 uM compound, read-out: % residual activity class (FIG. 3)
# T3 construct: purchased ProQinase
# p38-alpha = molecular target: T4, p38-alpha (Homo sapiens, UniProt Q16539); assay: as above; assay type: biochemical; details: read-out: % residual activity class (FIG. 3)
# T4 construct: purchased ProQinase
# EPHA1 = molecular target: T5, EPHA1 (Homo sapiens, UniProt P21709); assay: as above; assay type: biochemical
# T5 construct: purchased ProQinase
# T5 sequence (P21709 26-976): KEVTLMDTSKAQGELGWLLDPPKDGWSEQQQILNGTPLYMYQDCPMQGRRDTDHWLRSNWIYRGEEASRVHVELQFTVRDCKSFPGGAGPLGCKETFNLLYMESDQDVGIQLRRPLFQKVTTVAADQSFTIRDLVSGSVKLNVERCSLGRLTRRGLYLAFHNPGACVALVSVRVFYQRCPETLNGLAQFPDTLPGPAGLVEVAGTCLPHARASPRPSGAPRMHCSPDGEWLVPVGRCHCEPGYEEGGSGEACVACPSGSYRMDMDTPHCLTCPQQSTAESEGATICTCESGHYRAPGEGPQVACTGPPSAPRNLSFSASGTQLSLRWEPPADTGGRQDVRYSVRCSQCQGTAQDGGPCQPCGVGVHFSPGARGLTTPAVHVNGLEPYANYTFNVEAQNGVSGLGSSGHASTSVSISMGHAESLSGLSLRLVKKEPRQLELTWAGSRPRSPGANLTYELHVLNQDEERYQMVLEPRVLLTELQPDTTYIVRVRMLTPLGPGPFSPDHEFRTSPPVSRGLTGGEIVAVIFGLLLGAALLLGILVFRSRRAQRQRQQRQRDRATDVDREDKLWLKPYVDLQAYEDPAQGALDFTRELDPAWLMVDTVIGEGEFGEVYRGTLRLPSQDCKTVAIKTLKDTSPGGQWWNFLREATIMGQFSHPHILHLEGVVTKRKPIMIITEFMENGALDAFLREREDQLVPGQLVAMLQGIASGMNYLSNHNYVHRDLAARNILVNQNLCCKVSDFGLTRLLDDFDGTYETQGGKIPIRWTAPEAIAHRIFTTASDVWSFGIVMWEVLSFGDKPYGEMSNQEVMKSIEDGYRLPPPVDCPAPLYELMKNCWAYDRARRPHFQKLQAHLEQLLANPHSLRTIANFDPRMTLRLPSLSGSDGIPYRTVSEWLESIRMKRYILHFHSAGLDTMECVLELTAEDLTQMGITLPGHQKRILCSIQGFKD
# SIK2 = molecular target: T6, SIK2 (Homo sapiens, UniProt Q9H0K1); assay: as above; assay type: biochemical; details: read-out: % residual activity class (FIG. 3)
# T6 construct: purchased ProQinase
# PDGFR-beta = molecular target: T7, PDGFR-beta (Homo sapiens, UniProt P09619); assay: biochemical
# T7 construct: purchased ProQinase
# T7 sequence (P09619 33-1106): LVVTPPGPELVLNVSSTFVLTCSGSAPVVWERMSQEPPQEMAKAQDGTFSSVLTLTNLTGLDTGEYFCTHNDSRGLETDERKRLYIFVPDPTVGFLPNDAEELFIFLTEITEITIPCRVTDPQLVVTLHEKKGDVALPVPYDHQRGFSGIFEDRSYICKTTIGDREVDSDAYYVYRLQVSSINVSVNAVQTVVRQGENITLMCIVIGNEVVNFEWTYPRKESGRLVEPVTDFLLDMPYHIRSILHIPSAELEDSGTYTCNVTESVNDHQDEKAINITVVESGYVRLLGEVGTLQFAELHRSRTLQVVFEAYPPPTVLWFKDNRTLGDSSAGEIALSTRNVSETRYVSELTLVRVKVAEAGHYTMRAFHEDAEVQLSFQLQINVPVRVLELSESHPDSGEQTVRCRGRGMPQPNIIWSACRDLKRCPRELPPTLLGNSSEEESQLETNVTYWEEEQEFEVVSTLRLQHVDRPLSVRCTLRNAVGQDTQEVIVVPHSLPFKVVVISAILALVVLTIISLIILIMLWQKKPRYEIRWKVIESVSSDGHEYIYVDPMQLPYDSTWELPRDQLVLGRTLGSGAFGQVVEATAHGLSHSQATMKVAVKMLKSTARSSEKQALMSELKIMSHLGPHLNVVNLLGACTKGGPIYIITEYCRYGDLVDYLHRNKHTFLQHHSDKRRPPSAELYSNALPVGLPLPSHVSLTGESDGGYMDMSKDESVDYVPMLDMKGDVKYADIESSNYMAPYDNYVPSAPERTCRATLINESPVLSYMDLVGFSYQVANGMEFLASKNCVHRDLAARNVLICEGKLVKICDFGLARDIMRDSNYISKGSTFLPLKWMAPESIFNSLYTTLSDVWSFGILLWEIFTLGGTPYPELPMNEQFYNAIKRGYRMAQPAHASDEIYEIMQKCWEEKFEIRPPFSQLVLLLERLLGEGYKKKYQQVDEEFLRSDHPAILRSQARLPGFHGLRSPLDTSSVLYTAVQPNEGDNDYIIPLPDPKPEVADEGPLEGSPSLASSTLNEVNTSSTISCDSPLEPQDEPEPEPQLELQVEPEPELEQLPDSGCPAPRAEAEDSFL
# MDCK-wild type cells = details: dog
# RET = molecular target: T8, RET (Homo sapiens, UniProt P07949); assay: single-point (1 uM) inhibition assay (ProQinase Kinase Profiler); assay type: biochemical
# T8 construct: purchased ProQinase, Freiburg, Germany (Kinase Profiler panel)
# T8 sequence (P07949 29-1114): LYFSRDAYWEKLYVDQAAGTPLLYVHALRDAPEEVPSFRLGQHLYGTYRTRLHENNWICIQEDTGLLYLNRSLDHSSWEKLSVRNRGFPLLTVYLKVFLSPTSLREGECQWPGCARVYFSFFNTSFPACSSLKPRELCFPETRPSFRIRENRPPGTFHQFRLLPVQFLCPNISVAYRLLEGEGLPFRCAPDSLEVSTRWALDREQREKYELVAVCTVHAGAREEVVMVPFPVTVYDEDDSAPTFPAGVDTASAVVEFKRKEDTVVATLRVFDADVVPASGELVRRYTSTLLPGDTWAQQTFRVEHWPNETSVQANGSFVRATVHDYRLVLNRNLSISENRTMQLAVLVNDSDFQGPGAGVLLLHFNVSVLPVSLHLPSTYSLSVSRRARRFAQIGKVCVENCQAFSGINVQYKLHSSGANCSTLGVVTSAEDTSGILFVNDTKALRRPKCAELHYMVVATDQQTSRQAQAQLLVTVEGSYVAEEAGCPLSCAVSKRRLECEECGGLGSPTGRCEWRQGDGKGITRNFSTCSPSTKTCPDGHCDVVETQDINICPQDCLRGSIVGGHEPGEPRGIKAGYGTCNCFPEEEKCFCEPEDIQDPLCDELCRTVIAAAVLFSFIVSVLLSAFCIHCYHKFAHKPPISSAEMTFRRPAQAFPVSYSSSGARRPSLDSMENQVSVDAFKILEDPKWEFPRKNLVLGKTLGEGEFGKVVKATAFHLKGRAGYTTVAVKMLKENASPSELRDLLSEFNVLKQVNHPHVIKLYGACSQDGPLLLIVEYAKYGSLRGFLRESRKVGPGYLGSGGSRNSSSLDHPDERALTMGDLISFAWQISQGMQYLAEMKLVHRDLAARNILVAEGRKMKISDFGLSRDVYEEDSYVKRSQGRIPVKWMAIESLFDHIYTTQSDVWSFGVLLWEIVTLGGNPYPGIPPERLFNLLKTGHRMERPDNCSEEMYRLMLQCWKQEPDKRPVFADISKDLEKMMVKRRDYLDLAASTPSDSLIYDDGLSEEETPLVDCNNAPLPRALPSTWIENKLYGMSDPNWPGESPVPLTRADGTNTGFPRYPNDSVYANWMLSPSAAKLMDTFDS
# EPHA3 = molecular target: T9, EPHA3 (Homo sapiens, UniProt P29320); assay: as above; assay type: biochemical
# T9 construct: purchased ProQinase
# T9 sequence (P29320 21-983): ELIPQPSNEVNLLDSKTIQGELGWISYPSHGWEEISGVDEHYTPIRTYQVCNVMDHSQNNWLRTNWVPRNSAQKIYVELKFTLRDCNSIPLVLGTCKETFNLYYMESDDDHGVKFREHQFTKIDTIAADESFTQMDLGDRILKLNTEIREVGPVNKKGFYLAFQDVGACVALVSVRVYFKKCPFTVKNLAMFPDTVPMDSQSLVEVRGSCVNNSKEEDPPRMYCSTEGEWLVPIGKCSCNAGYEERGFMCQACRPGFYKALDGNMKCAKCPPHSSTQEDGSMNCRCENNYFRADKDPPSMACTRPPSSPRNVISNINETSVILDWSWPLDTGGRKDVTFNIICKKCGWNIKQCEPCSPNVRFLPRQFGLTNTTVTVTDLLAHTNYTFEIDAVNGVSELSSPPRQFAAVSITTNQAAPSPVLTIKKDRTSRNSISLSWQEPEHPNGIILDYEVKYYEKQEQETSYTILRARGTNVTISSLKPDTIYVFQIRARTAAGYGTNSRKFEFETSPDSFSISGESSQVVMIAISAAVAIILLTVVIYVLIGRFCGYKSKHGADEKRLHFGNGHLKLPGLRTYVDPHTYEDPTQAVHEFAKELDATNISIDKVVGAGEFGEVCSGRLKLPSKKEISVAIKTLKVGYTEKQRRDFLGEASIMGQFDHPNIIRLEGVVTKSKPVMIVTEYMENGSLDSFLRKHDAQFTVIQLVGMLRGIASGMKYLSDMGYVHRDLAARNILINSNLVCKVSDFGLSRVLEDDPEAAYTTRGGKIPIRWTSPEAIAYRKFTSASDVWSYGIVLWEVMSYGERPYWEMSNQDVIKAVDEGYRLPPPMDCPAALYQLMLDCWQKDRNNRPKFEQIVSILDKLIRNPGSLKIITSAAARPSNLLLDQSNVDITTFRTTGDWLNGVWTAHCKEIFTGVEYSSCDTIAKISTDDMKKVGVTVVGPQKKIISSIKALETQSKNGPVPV
# ACV-RL1 = molecular target: T10, ACV-RL1 (Homo sapiens, UniProt P37023); assay: as above; assay type: biochemical; details: 1 uM compound, read-out: % residual activity class (FIG. 3)
# T10 construct: purchased ProQinase
# SIK3 = molecular target: T11, SIK3 (Homo sapiens, UniProt Q9Y2K2); assay: as above; assay type: biochemical; details: read-out: % residual activity class (FIG. 3)
# T11 construct: purchased ProQinase
# RIPK2 = molecular target: T12, RIPK2 (Homo sapiens, UniProt O43353); assay: as above; assay type: biochemical; details: 1 uM compound, read-out: % residual activity class (FIG. 3)
# T12 construct: purchased ProQinase
# ACV-R1 = molecular target: T13, ACV-R1 (Homo sapiens, UniProt Q04771); assay: as above; assay type: biochemical; details: read-out: % residual activity class (FIG. 3)
# T13 construct: purchased ProQinase
# ABL2 = molecular target: T14, ABL2 (Homo sapiens, UniProt P42684); assay: as above; assay type: biochemical; details: 1 uM compound, read-out: % residual activity class (FIG. 3)
# T14 construct: purchased ProQinase
# DDR2 = molecular target: T15, DDR2 (Homo sapiens, UniProt Q16832); assay: as above; assay type: biochemical; details: 1 uM compound, read-out: % residual activity class (FIG. 3)
# T15 construct: purchased ProQinase, Freiburg, Germany (Kinase Profiler panel)
# EPHB2 = molecular target: T16, EPHB2 (Homo sapiens, UniProt P29323); assay: as above; assay type: biochemical; details: read-out: % residual activity class (FIG. 3)
# T16 construct: purchased ProQinase
# NLK = molecular target: T17, NLK (Homo sapiens, UniProt Q9UBE8); assay: as above; assay type: biochemical; details: 1 uM compound, read-out: % residual activity class (FIG. 3)
# T17 construct: purchased ProQinase
# MAP4K5 = molecular target: T18, MAP4K5 (Homo sapiens, UniProt Q9Y4K4); assay: as above; assay type: biochemical; details: read-out: % residual activity class (FIG. 3)
# T18 construct: purchased ProQinase
# CSK = molecular target: T19, CSK (Homo sapiens, UniProt P41240); assay: as above; assay type: biochemical; details: 1 uM compound, read-out: % residual activity class (FIG. 3)
# T19 construct: purchased ProQinase
# EPHB1 = molecular target: T20, EPHB1 (Homo sapiens, UniProt P54762); assay: as above; assay type: biochemical
# T20 construct: purchased ProQinase
# T20 sequence (P54762 18-984): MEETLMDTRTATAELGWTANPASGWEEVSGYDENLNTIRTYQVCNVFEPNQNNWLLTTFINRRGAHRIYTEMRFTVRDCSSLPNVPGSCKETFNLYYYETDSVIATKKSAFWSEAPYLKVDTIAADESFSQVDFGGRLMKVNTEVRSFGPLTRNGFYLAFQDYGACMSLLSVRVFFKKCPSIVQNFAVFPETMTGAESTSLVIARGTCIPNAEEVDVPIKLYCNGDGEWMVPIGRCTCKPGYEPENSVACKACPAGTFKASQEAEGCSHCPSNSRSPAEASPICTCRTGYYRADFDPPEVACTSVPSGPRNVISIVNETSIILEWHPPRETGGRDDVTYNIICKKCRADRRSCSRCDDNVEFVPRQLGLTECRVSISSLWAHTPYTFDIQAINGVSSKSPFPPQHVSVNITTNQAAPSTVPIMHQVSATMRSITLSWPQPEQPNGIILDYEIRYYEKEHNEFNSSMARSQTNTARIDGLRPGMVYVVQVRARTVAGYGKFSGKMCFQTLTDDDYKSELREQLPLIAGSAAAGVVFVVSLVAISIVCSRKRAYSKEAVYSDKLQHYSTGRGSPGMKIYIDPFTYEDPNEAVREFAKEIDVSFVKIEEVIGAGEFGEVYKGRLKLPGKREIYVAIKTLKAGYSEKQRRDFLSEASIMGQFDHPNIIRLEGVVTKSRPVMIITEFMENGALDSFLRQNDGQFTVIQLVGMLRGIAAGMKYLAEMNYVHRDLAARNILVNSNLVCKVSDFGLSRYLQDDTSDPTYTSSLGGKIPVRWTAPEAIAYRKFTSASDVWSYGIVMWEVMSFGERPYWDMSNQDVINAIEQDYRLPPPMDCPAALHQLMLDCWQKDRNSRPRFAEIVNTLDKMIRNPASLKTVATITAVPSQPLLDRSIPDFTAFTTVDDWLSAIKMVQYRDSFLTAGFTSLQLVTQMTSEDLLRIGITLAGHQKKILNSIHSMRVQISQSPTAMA
# MDCK-MDR1 cells = details: dog
# PDGFR-alpha = molecular target: T21, PDGFR-alpha (Homo sapiens, UniProt P16234); assay: single-point (1 uM) inhibition assay (ProQinase Kinase Profiler); assay type: biochemical; details: read-out: % residual activity class (FIG. 3)
# T21 construct: purchased ProQinase
# FYN = FYN (Homo sapiens, UniProt P06241); assay: as above; details: read-out: % residual activity class (FIG. 3)
# ACV-R1B = molecular target: T22, ACV-R1B (Homo sapiens, UniProt P36896); assay: as above; assay type: biochemical; details: read-out: % residual activity class (FIG. 3)
# T22 construct: purchased ProQinase
# ACK1 = molecular target: T23, ACK1 (Homo sapiens, UniProt Q07912); assay: as above; assay type: biochemical; details: 1 uM compound, read-out: % residual activity class (FIG. 3)
# T23 construct: purchased ProQinase
# TXK = molecular target: T24, TXK (Homo sapiens, UniProt P42681); assay: as above; assay type: biochemical; details: 1 uM compound, read-out: % residual activity class (FIG. 3)
# T24 construct: purchased ProQinase
# ZAK = molecular target: T25, ZAK (Homo sapiens, UniProt Q9NYL2); assay: as above; assay type: biochemical; details: 1 uM compound, read-out: % residual activity class (FIG. 3)
# T25 construct: purchased ProQinase
# SRMS = molecular target: T26, SRMS (Homo sapiens, UniProt Q9H3Y6); assay: as above; assay type: biochemical; details: 1 uM compound, read-out: % residual activity class (FIG. 3)
# T26 construct: purchased ProQinase
# EPHB3 = molecular target: T27, EPHB3 (Homo sapiens, UniProt P54753); assay: as above; assay type: biochemical
# T27 construct: purchased ProQinase
# BLK = molecular target: T28, BLK (Homo sapiens, UniProt P51451); assay: as above; assay type: biochemical; details: 1 uM compound, read-out: % residual activity class (FIG. 3)
# T28 construct: purchased ProQinase
# FRK = molecular target: T29, FRK (Homo sapiens, UniProt P42685); assay: as above; assay type: biochemical; details: 1 uM compound, read-out: % residual activity class (FIG. 3)
# T29 construct: purchased ProQinase
# LYN = molecular target: T30, LYN (Homo sapiens, UniProt P07948); assay: as above; assay type: biochemical; details: 1 uM compound, read-out: % residual activity class (FIG. 3)
# T30 construct: purchased ProQinase
# HCK = molecular target: T31, HCK (Homo sapiens, UniProt P08631); assay: as above; assay type: biochemical; details: 1 uM compound, read-out: % residual activity class (FIG. 3)
# T31 construct: purchased ProQinase
# FGR = molecular target: T32, FGR (Homo sapiens, UniProt P09769); assay: as above; assay type: biochemical; details: 1 uM compound, read-out: % residual activity class (FIG. 3)
# T32 construct: purchased ProQinase
# EPHB4 = molecular target: T33, EPHB4 (Homo sapiens, UniProt P54760); assay: biochemical
# T33 construct: purchased ProQinase
# JAK1 aa583-1154 wt = molecular target: T34, JAK1 aa583-1154 wt (Homo sapiens, UniProt P23458); assay: single-point (1 uM) inhibition assay (ProQinase Kinase Profiler); assay type: biochemical
# T34 construct: JAK1 aa583-1154 wt; purchased ProQinase, Freiburg, Germany (Kinase Profiler panel)
# BMPR1A = molecular target: T35, BMPR1A (Homo sapiens, UniProt P36894); assay: as above; assay type: biochemical
# T35 construct: purchased ProQinase, Freiburg, Germany (Kinase Profiler panel)
# [1] = read-out: % residual activity class (FIG. 3)
# [2] = read-out: Residual activity (%) at 1 uM
# [3] = PDGFR-beta, 1 uM compound, read-out: % residual activity class (FIG. 3)
# [4] = read-out: Residual activity (%) at 1 uM, RET
structure (smiles),measurement,setting,value
"Cc1nc(Nc2ncc(C(=O)Nc3c(Cl)ccnc3C)s2)cc(N2CCN(CCO)CC2)n1 [Compound B3, N-(4-chloro-2-methylpyridin-3-yl)-2-((6-(4-(2-hydroxyethyl)piperazin-1-yl)-2-methylpyrimidin-4-yl)amino)thiazole-5-carboxamide]",remaining activity at 1 µM,SIK1,< 25%
same,remaining activity at 1 µM,EPHA5; [1],< 25%
same,remaining activity at 1 µM,EPHA5; [2],1%
same,remaining activity at 1 µM,TEC,< 25%
same,remaining activity at 1 µM,p38-alpha,25 to 50%
same,remaining activity at 1 µM,EPHA1; [1],< 25%
same,remaining activity at 1 µM,EPHA1; [2],3%
same,remaining activity at 1 µM,SIK2,< 25%
same,remaining activity at 1 µM,PDGFR-beta; [3],< 25%
same,remaining activity at 1 µM,PDGFR-beta; [2],6%
same,Mean recovery B > A,MDCK-wild type cells,120%
same,remaining activity at 1 µM,RET; [4],~100%
same,remaining activity at 1 µM,EPHA3; [1],< 25%
same,remaining activity at 1 µM,EPHA3; [2],0%
same,remaining activity at 1 µM,ACV-RL1,25 to 50%
same,remaining activity at 1 µM,SIK3,< 25%
same,remaining activity at 1 µM,RIPK2,< 25%
same,remaining activity at 1 µM,ACV-R1,25 to 50%
same,remaining activity at 1 µM,ABL2,< 25%
same,remaining activity at 1 µM,DDR2,< 25%
same,remaining activity at 1 µM,EPHB2,< 25%
same,remaining activity at 1 µM,NLK,25 to 50%
same,remaining activity at 1 µM,MAP4K5,25 to 50%
same,remaining activity at 1 µM,CSK,< 25%
same,remaining activity at 1 µM,EPHB1; [1],< 25%
same,remaining activity at 1 µM,EPHB1; [2],0%
same,Mean recovery A > B,MDCK-MDR1 cells,93%
same,remaining activity at 1 µM,PDGFR-alpha,< 25%
same,remaining activity at 1 µM,FYN,< 25%
same,remaining activity at 1 µM,ACV-R1B,25 to 50%
same,remaining activity at 1 µM,ACK1,< 25%
same,remaining activity at 1 µM,TXK,< 25%
same,remaining activity at 1 µM,ZAK,< 25%
same,remaining activity at 1 µM,SRMS,25 to 50%
same,remaining activity at 1 µM,EPHB3; [1],< 25%
same,remaining activity at 1 µM,EPHB3; [2],3%
same,remaining activity at 1 µM,BLK,< 25%
same,remaining activity at 1 µM,FRK,< 25%
same,remaining activity at 1 µM,LYN,< 25%
same,remaining activity at 1 µM,HCK,< 25%
same,remaining activity at 1 µM,FGR,< 25%
same,remaining activity at 1 µM,"EPHB4; EPHB4, 1 uM compound, read-out: % residual activity class (FIG. 3)",< 25%
same,remaining activity at 1 µM,EPHB4; [2],1%
"Cc1nc(Nc2ncc(C(=O)Nc3c(C)cccc3Cl)s2)cc(N2CCN(CCO)CC2)n1 [Compound A8, N-(2-chloro-6-methylphenyl)-2-((6-(4-(2-hydroxyethyl)piperazin-1-yl)-2-methylpyrimidin-4-yl)amino)thiazole-5-carboxamide, reference compound]",remaining activity at 1 µM,"SIK1; SIK1, 1 uM compound",< 25%
same,remaining activity at 1 µM,TEC,< 25%
same,remaining activity at 1 µM,"p38-alpha; p38-alpha, 1 uM compound",< 25%
same,remaining activity at 1 µM,JAK1 aa583-1154 wt; [1],25 to 50%
same,remaining activity at 1 µM,JAK1 aa583-1154 wt; [2],41%
same,remaining activity at 1 µM,"SIK2; SIK2, 1 uM compound",< 25%
same,remaining activity at 1 µM,PDGFR-beta; [3],< 25%
same,remaining activity at 1 µM,PDGFR-beta; [2],2%
same,Mean Papp A > B,MDCK-wild type cells,21
same,Residual activity (%) at 1 uM,"RET; RET, 1 µM",39%
same,remaining activity at 1 µM,"RET; RET, 1 uM compound, read-out: % residual activity class (FIG. 3)",25 to 50%
same,remaining activity at 1 µM,RET; [4],< 40%
same,remaining activity at 1 µM,"EPHA3; EPHA3, 1 uM compound, read-out: % residual activity class (FIG. 3)",< 25%
same,remaining activity at 1 µM,ACV-RL1,< 25%
same,remaining activity at 1 µM,"SIK3; SIK3, 1 uM compound",< 25%
same,remaining activity at 1 µM,RIPK2,< 25%
same,remaining activity at 1 µM,"ACV-R1; ACV-R1, 1 uM compound",< 25%
same,remaining activity at 1 µM,"BMPR1A; BMPR1A, 1 uM compound, read-out: % residual activity class (FIG. 3)",25 to 50%
same,remaining activity at 1 µM,BMPR1A; [2],42%
same,remaining activity at 1 µM,ABL2,< 25%
same,remaining activity at 1 µM,DDR2,< 25%
same,remaining activity at 1 µM,"EPHB2; EPHB2, 1 uM compound",< 25%
same,remaining activity at 1 µM,NLK,< 25%
same,remaining activity at 1 µM,"MAP4K5; MAP4K5, 1 uM compound",< 25%
same,remaining activity at 1 µM,CSK,< 25%
same,remaining activity at 1 µM,EPHB1; [1],< 25%
same,Mean Papp A > B,MDCK-MDR1 cells,2.4
same,remaining activity at 1 µM,PDGFR-alpha,< 25%
same,remaining activity at 1 µM,FYN,< 25%
same,remaining activity at 1 µM,"ACV-R1B; ACV-R1B, 1 uM compound",< 25%
same,remaining activity at 1 µM,ACK1,< 25%
same,remaining activity at 1 µM,TXK,< 25%
same,remaining activity at 1 µM,ZAK,< 25%
same,remaining activity at 1 µM,SRMS,< 25%
same,remaining activity at 1 µM,BLK,< 25%
same,remaining activity at 1 µM,FRK,< 25%
same,remaining activity at 1 µM,LYN,< 25%
same,remaining activity at 1 µM,HCK,< 25%
same,remaining activity at 1 µM,FGR,< 25%
